Source: PubChem BioAssay (NCI)
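These data come from cells grown in 96-well plates and exposed to compound for 48 hours at five concentrations. TGI: concentration producing complete growth inhibition.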

Columns and labels:
Experiment in all cases: NCI-60 cell line screen, 48 h
[1] = system: NCI-H460 lung
[2] = system: OVCAR-8 ovarian
[3] = system: SK-MEL-2 melanoma
[4] = system: K-562 leukemia
[5] = system: MALME-3M melanoma
[6] = system: NCI-H23 lung
[7] = system: MOLT-4 leukemia
[8] = system: OVCAR-3 ovarian
[9] = system: SW-620 colon
[10] = system: M14 melanoma

Row | SMILES | TGI [1] | TGI [2] | TGI [3] | TGI [4] | TGI [5] | TGI [6] | TGI [7] | TGI [8] | TGI [9] | TGI [10]
1 | CCOC(=O)CC[C@H](NC(=O)[C@H](N)Cc1ccc(N(CCCl)CCCl)cc1)C(=O)OCC | 17.3 µM | > 52.8 µM | 63.2 µM | > 100 µM | 9.92 µM | 12.9 µM | 6.85 µM | 30.2 µM | > 58.8 µM | 21.8 µM
2 | COC(=O)/C=C(\C)CC(O)/C=C(\C)CCC=C(C)C (stereo not given) | > 100 µM | > 100 µM | 73.7 µM | > 100 µM | > 100 µM | 74.9 µM | 55.3 µM | 87.7 µM | > 100 µM | > 100 µM
3 | CN(CC(=O)O)c1ncc2c(n1)CCCC2 | > 100 µM | > 100 µM | > 100 µM | > 100 µM | > 100 µM | > 100 µM | > 100 µM | > 100 µM | > 100 µM | > 100 µM
4 | O=c1[nH]nc(Cc2ccccc2)n1/N=C/c1ccccc1O | > 100 µM | > 100 µM | > 100 µM | > 100 µM | > 100 µM | > 100 µM | > 100 µM | > 100 µM | > 100 µM | > 100 µM
5 | O=C1C(c2c(O)[nH]c3ccc(F)cc23)=Nc2ccccc21 | > 100 µM | 43.8 µM | > 100 µM | > 100 µM | > 100 µM | > 100 µM | 81.5 µM | > 100 µM | > 100 µM | > 100 µM
6 | Clc1ccc(C2C3COc4ccccc4C3=NN2c2ccccc2)cc1 (stereo not given) | > 100 µM | > 100 µM | > 100 µM | 21.9 µM | > 100 µM | > 100 µM | 47 µM | > 100 µM | > 32.7 µM | > 100 µM
7 | CC1CCC(=O)C(C(=O)CC2CC(=O)N(C)C(=O)C2)C1 (stereo not given) | > 100 µM | > 100 µM | > 100 µM | > 100 µM | > 100 µM | > 100 µM | > 100 µM | > 100 µM | > 100 µM | > 100 µM
8 | CN(C)CCCC12CCCCC1=Nc1ccccc12 (stereo not given) | > 100 µM | > 100 µM | > 100 µM | > 100 µM | > 100 µM | > 100 µM | > 100 µM | > 100 µM | > 100 µM | > 100 µM
9 | Cc1cc2oc(=N)c(C#N)c(C)c2cc1C | > 100 µM | > 100 µM | > 100 µM | > 100 µM | > 100 µM | > 100 µM | 33.2 µM | > 100 µM | > 100 µM | > 100 µM
10 | Cc1cc(S(=O)(=O)Nc2n[nH]c(N)n2)c(SCC(=O)O)cc1Cl | > 10 µM | > 10 µM | > 10 µM | > 10 µM | > 10 µM | > 10 µM | > 10 µM | > 10 µM | > 10 µM | > 10 µM
11 | O=c1c(/C=C/c2c(O)ccc3ccccc23)nnc2sc(-c3cccc(Br)c3)nn12 | > 100 µM | 23.6 µM | > 100 µM | 77.7 µM | > 100 µM | 40.3 µM | 40.3 µM | > 100 µM | > 100 µM | 66.4 µM
12 | CN(C)CCC(=O)c1ccccc1 | > 73.5 µM | > 71.9 µM | > 84.4 µM | 85.4 µM | 24.1 µM | > 74 µM | 59.9 µM | > 73.4 µM | 32.4 µM | 52.6 µM
13 | Cc1nc2c(nc1C)-c1[nH]c3c(c1C(=O)C2=O)CCCC3=O | 16.2 µM | 2.88 µM | 3.29 µM | 5.59 µM | 2.82 µM | 5.63 µM | 5.67 µM | 2.07 µM | 5.17 µM | 3.4 µM
14 | Oc1[nH]c2ccccc2c1N=NC(=S)Nc1cccc(Cl)c1 | 65.2 µM | 35.7 µM | 89.6 µM | 50 µM | 52.3 µM | 52.3 µM | 10.8 µM | > 100 µM | 26.8 µM | 24.7 µM
15 | CCC(C)OC(=O)/C(Br)=C1/OC(=O)c2ccccc2-c2ccccc21 (stereo not given) | 73.9 µM | > 100 µM | > 100 µM | 40.6 µM | 80.6 µM | > 100 µM | 50.7 µM | > 100 µM | > 100 µM | > 100 µM
16 | N#CCCN(C(=O)Nc1ccccc1)[C@H]1CCCC[C@@H]1N(C(=O)Nc1ccccc1)c1ccccc1 | > 100 µM | > 100 µM | > 100 µM | > 100 µM | > 100 µM | > 100 µM | > 100 µM | > 100 µM | > 100 µM | > 100 µM
17 | CCOC(=O)NC(Nc1ccc(S(=O)(=O)Nc2nc(C)cc(C)n2)cc1)(C(=O)OCC)C(F)(F)F (stereo not given) | > 100 µM | > 100 µM | > 100 µM | > 100 µM | > 100 µM | > 100 µM | > 100 µM | > 100 µM | > 100 µM | > 100 µM
18 | COc1ccc(P2(=S)OC(C)(C)C(C)(C)O2)cc1 | > 100 µM | > 100 µM | > 100 µM | > 100 µM | > 100 µM | > 100 µM | > 100 µM | > 100 µM | > 100 µM | > 100 µM
19 | C[C@H](CCC(=O)O)[C@H]1CC[C@H]2[C@@H]3CC[C@@H]4C[C@H](O)CC[C@]4(C)[C@H]3C[C@H](O)[C@]12C | > 100 µM | > 100 µM | > 100 µM | > 100 µM | > 100 µM | > 100 µM | 62.3 µM | 52.1 µM | > 100 µM | > 100 µM
20 | Fc1cc(-c2cc(-c3ccccc3)no2)c(Cl)cc1Cl | > 43.1 µM | > 40.8 µM | > 40.1 µM | > 56.4 µM | > 35.2 µM | > 34.2 µM | > 47.8 µM | > 40.1 µM | > 63.3 µM | > 54.7 µM
21 | CC(=O)c1[nH]c(NCc2ccccc2)c(C(=S)Nc2ccccc2)c1N | 56.5 µM | 39.2 µM | 1.07 µM | 76.1 µM | 38.6 µM | > 100 µM | > 100 µM | 97.9 µM | > 100 µM | 33.7 µM
22 | COc1cc(C2c3cc4c(cc3OC3(OC)COC(=O)C23)OCO4)cc(OC)c1OC(C)=O (stereo not given) | > 59.7 µM | > 75.2 µM | > 100 µM | > 100 µM | > 100 µM | > 100 µM | > 100 µM | > 36.2 µM | > 100 µM | > 74.2 µM
23 | O=C(/C=C/c1cc2ccccc2o1)N1CCN(c2ccccn2)CC1 | > 100 µM | > 100 µM | > 100 µM | > 100 µM | > 100 µM | > 100 µM | > 100 µM | > 100 µM | > 100 µM | > 100 µM
24 | CCOC(=O)C12OC(CCC1=O)C(C(=O)OC)=C2C(=O)OC (stereo not given) | > 10 µM | > 10 µM | > 10 µM | > 10 µM | > 10 µM | > 10 µM | > 10 µM | > 10 µM | > 10 µM | > 10 µM
25 | CC(=O)c1c(C)n([O-])c2cc(Cl)c(Cl)cc2[n+]1=O | 56 µM | 89.9 µM | > 100 µM | 95.4 µM | 26.4 µM | > 100 µM | > 100 µM | 88.5 µM | > 100 µM | > 100 µM
26 | COC(=O)C1=C(C(=O)NNc2ccccc2)N(c2cccnc2Cl)C(c2ccccc2)=CC1c1ccccc1 (stereo not given) | > 100 µM | > 100 µM | 76.6 µM | > 100 µM | > 100 µM | > 100 µM | 67.2 µM | > 100 µM | > 100 µM | > 100 µM
27 | CC(OC(C)(C)C)[C@H](NC(=O)OCC(Cl)(Cl)Cl)C(=O)O (stereo not given in full) | > 100 µM | > 100 µM | > 100 µM | > 100 µM | > 100 µM | > 100 µM | > 100 µM | > 100 µM | > 100 µM | > 100 µM
28 | Cc1[nH]nc(C(F)(F)F)c1N=NN1CCOCC1 | 17.1 µM | 13.7 µM | 27.1 µM | 2.4 µM | 31.3 µM | 15.5 µM | 5.32 µM | 23 µM | 5.64 µM | 32.8 µM
